Test: Binding affinity was determined towards Opioid receptor delta 1 using [3H]naltrindole as radioligand

| SMILES | Ki [nM] |
| --- | --- |
| Nc1ccc2c3c1O[C@H]1C(=O)CC[C@@]4(O)[C@@H](C2)N(CC2CC2)CC[C@]314 [10-amino-4-cyclopropylmethyl-17-hydroxy-(1S,5R,13R,17S)-12-oxa-4-azapentacyclo[9.6.1.01,13.05,17.07,18]octadeca-7(18),8,10-trien-14-one] | 880 |
| CC1[C@H]2Cc3ccc(NC=O)cc3[C@]1(C)CCN2CC1CC1 (stereo partly drawn) [(1R,9R,13R)-10-(cyclopropylmethyl)-1,13-dimethyl-10-azatricyclo[7.3.1.0~2,7~]trideca-2,4,6-trien-4-ylformamide] | 9.8 |
| C[C@@H]1C2Cc3ccc(NC=O)cc3[C@]1(C)CCN2CC1CC1 [(1S,9S,13S)-10-(cyclopropylmethyl)-1,13-dimethyl-10-azatricyclo[7.3.1.0~2,7~]trideca-2,4,6-trien-4-ylformamide] | > 10000 |
| C[C@H]1C2Cc3ccc(N(C)C=O)cc3[C@@]1(C)CCN2CC1CC1 [N-((6S,11R)-3-Cyclopropylmethyl-6,11-dimethyl-1,2,3,4,5,6-hexahydro-2,6-methano-benzo[d]azocin-8-yl)-N-methyl-formamide] | 6200 |
| CC(=O)Nc1ccc2c(c1)[C@@]1(C)CCN(CC3CC3)C(C2)[C@@H]1C [N-((6S,11R)-3-Cyclopropylmethyl-6,11-dimethyl-1,2,3,4,5,6-hexahydro-2,6-methano-benzo[d]azocin-8-yl)-acetamide] | 1700 |
| C[C@H]1C2Cc3ccc(NC(=O)c4ccccc4)cc3[C@@]1(C)CCN2CC1CC1 [N-((6S,11R)-3-Cyclopropylmethyl-6,11-dimethyl-1,2,3,4,5,6-hexahydro-2,6-methano-benzo[d]azocin-8-yl)-benzamide] | 2400 |
| C[C@H]1C2Cc3ccc(NC=O)cc3[C@@]1(C)CCN2CC1CC1 [N-((6S,11R)-3-Cyclopropylmethyl-6,11-dimethyl-1,2,3,4,5,6-hexahydro-2,6-methano-benzo[d]azocin-8-yl)-formamide] | 37 |
| CC[C@@]12CCN(CC3CC3)C(C(=O)c3ccc(NC=O)cc31)[C@@H]2C [N-((6S,11R)-3-Cyclopropylmethyl-6-ethyl-11-methyl-1-oxo-1,2,3,4,5,6-hexahydro-2,6-methano-benzo[d]azocin-8-yl)-formamide] | 52 |
| O=CNc1ccc2c3c1O[C@H]1C(=O)CC[C@@]4(O)[C@@H](C2)N(CC2CC2)CC[C@]314 [N-[4-cyclopropylmethyl-17-hydroxy-14-oxo-(1S,5R,17S)-12-oxa-4-azapentacyclo[9.6.1.01,13.05,17.07,18]octadeca-7(18),8,10-trien-10-yl]methanamide] | 420 |

Reference: BindingDB's records for doi:10.1016/s0960-894x(03)00295-6 (Rensselaer Polytechnic Institute, 2003)
